Results on 15 compounds are retold here after patent US20160168126A1, “CHEMICAL COMPOUNDS” (SYNGENTA LIMITED, priority 2013, published 2016).

For the assay, the system named is a variety of test species. The experiment in a line: Post-emergence herbicidal activity (glasshouse, sprayed 8 days after sowing, evaluated after 13 days). The format is in vivo. The conditions noted are these: 1000 g/ha, scale 0-5. How it is done:
Seeds of a variety of test species were sown in standard soil in pots. After 8 days cultivation (post-emergence) under controlled conditions in a glasshouse (at 24/16° C., day/night; 14 hours light; 65% humidity), the plants were sprayed with an aqueous spray solution derived from the formulation of the technical active ingredient in acetone/water (50:50) solution containing 0.5% Tween 20 (polyoxyethelyene sorbitan monolaurate, CAS RN 9005-64-5). The test plants were then grown in a glasshouse under controlled conditions (at 24/16° C., day/night; 14 hours light; 65% humidity) and watered twice daily. After 13 days, the test was evaluated (5=total damage to plant; 0=no damage to plant).

`CC1=C(Cl)C(O)N(c2nn(C)c3c2C2CCC3C2)C1=O` (stereo not drawn) [Compound B29]: the “Post-emergence herbicidal damage score, ABUTH (Abutilon theophrasti)” value came to 5; the “Post-emergence herbicidal damage score, ALOMY (Alopecurus myosuroides)” value was 4; the “Post-emergence herbicidal damage score, AMARE (Amaranthus retroflexus)” value is listed as 5; the “Post-emergence herbicidal damage score, ECHCG (Echinochloa crus-galli)” value came to 5. Moreover, the “Post-emergence herbicidal damage score, SETFA (Setaria faberi)” value is 5 and the “Post-emergence herbicidal damage score, ZEAMX (Zea mays)” value worked out at 3.

With `CC1=C(Cl)C(O)N(c2ccn(C)n2)C1=O` (stereo not drawn) [Compound B31], the “Post-emergence herbicidal damage score, ABUTH (Abutilon theophrasti)” value was 0; the “Post-emergence herbicidal damage score, ALOMY (Alopecurus myosuroides)” value is given as 1; the “Post-emergence herbicidal damage score, AMARE (Amaranthus retroflexus)” value was 3; the “Post-emergence herbicidal damage score, ECHCG (Echinochloa crus-galli)” value is given as 1. Also, the “Post-emergence herbicidal damage score, SETFA (Setaria faberi)” value stood at 1 and the “Post-emergence herbicidal damage score, ZEAMX (Zea mays)” value is on record as 1.

On to `CC1=C(Cl)C(O)N(c2cc(Cc3ccccc3)n(C)n2)C1=O` (stereo not drawn) [Compound B32], for which the “Post-emergence herbicidal damage score, ABUTH (Abutilon theophrasti)” value is given as 5; the “Post-emergence herbicidal damage score, ALOMY (Alopecurus myosuroides)” value is listed as 2; the “Post-emergence herbicidal damage score, AMARE (Amaranthus retroflexus)” value amounted to 3; the “Post-emergence herbicidal damage score, ECHCG (Echinochloa crus-galli)” value is 3. Further, the “Post-emergence herbicidal damage score, SETFA (Setaria faberi)” value turned out to be 4 and the “Post-emergence herbicidal damage score, ZEAMX (Zea mays)” value was 0.

As to `CCn1nc(N2C(=O)C(C)=C(Cl)C2O)cc1C(F)(F)F` (stereo not drawn) [Compound C1], the “Post-emergence herbicidal damage score, ABUTH (Abutilon theophrasti)” value was found to be 3; the “Post-emergence herbicidal damage score, ALOMY (Alopecurus myosuroides)” value is reported as 3; the “Post-emergence herbicidal damage score, AMARE (Amaranthus retroflexus)” value worked out at 5; the “Post-emergence herbicidal damage score, ECHCG (Echinochloa crus-galli)” value came to 4. In addition, the “Post-emergence herbicidal damage score, SETFA (Setaria faberi)” value was found to be 0 and the “Post-emergence herbicidal damage score, ZEAMX (Zea mays)” value is reported as 1.

Turning to `CCn1nc(N2C(=O)C(C)=C(Cl)C2O)cc1C(C)(C)C` (stereo not drawn) [Compound C2], the “Post-emergence herbicidal damage score, ABUTH (Abutilon theophrasti)” value is on record as 5; the “Post-emergence herbicidal damage score, ALOMY (Alopecurus myosuroides)” value came out at 3; the “Post-emergence herbicidal damage score, AMARE (Amaranthus retroflexus)” value was found to be 4; the “Post-emergence herbicidal damage score, ECHCG (Echinochloa crus-galli)” value is listed as 4. For the same compound, the “Post-emergence herbicidal damage score, SETFA (Setaria faberi)” value turned out to be 4 and the “Post-emergence herbicidal damage score, ZEAMX (Zea mays)” value was 0.

Turning to `CCn1nc(N2C(=O)C(C)=C(Cl)C2O)c2c1C(C)(C)CC2` (stereo not drawn) [Compound C3], the “Post-emergence herbicidal damage score, ABUTH (Abutilon theophrasti)” value was 5; the “Post-emergence herbicidal damage score, ALOMY (Alopecurus myosuroides)” value was 4; the “Post-emergence herbicidal damage score, AMARE (Amaranthus retroflexus)” value came out at 5; the “Post-emergence herbicidal damage score, ECHCG (Echinochloa crus-galli)” value is given as 5. Moreover, the “Post-emergence herbicidal damage score, SETFA (Setaria faberi)” value came out at 5 and the “Post-emergence herbicidal damage score, ZEAMX (Zea mays)” value is given as 1.

As to `CC1=C(Cl)C(O)N(c2cc(C(F)(F)F)n(C(C)C)n2)C1=O` (stereo not drawn) [Compound C4], the “Post-emergence herbicidal damage score, ABUTH (Abutilon theophrasti)” value turned out to be 0; the “Post-emergence herbicidal damage score, ALOMY (Alopecurus myosuroides)” value came out at 0; the “Post-emergence herbicidal damage score, AMARE (Amaranthus retroflexus)” value is 1; the “Post-emergence herbicidal damage score, ECHCG (Echinochloa crus-galli)” value amounted to 1. The “Post-emergence herbicidal damage score, SETFA (Setaria faberi)” value was determined as 1 and the “Post-emergence herbicidal damage score, ZEAMX (Zea mays)” value was 1.

On to `CC1=C(Cl)C(O)N(c2cc(C(F)(F)F)n(CC(F)(F)F)n2)C1=O` (stereo not drawn) [Compound C5], for which the “Post-emergence herbicidal damage score, ABUTH (Abutilon theophrasti)” value came to 2; the “Post-emergence herbicidal damage score, ALOMY (Alopecurus myosuroides)” value was 0; the “Post-emergence herbicidal damage score, AMARE (Amaranthus retroflexus)” value is given as 1; the “Post-emergence herbicidal damage score, ECHCG (Echinochloa crus-galli)” value turned out to be 0. Moreover, the “Post-emergence herbicidal damage score, SETFA (Setaria faberi)” value is 0 and the “Post-emergence herbicidal damage score, ZEAMX (Zea mays)” value is 3.

With `CC1=C(Cl)C(O)N(c2cc(C)n(C(F)F)n2)C1=O` (stereo not drawn) [Compound C6], the “Post-emergence herbicidal damage score, ABUTH (Abutilon theophrasti)” value amounted to 1; the “Post-emergence herbicidal damage score, ALOMY (Alopecurus myosuroides)” value is 0; the “Post-emergence herbicidal damage score, AMARE (Amaranthus retroflexus)” value is 2; the “Post-emergence herbicidal damage score, ECHCG (Echinochloa crus-galli)” value is recorded as 0. Further, the “Post-emergence herbicidal damage score, SETFA (Setaria faberi)” value is on record as 2 and the “Post-emergence herbicidal damage score, ZEAMX (Zea mays)” value is 1.

With `CC1=C(Cl)C(O)N(c2cc(C#N)n(CC(F)(F)F)n2)C1=O` (stereo not drawn) [Compound C7], the “Post-emergence herbicidal damage score, ABUTH (Abutilon theophrasti)” value was found to be 3; the “Post-emergence herbicidal damage score, ALOMY (Alopecurus myosuroides)” value was 0; the “Post-emergence herbicidal damage score, AMARE (Amaranthus retroflexus)” value was 0; the “Post-emergence herbicidal damage score, ECHCG (Echinochloa crus-galli)” value was 0. Also, the “Post-emergence herbicidal damage score, SETFA (Setaria faberi)” value worked out at 1 and the “Post-emergence herbicidal damage score, ZEAMX (Zea mays)” value worked out at 0.

For `CC1=C(Cl)C(O)N(c2nn(CC(F)(F)F)c(C)c2C#N)C1=O` (stereo not drawn) [Compound C8], the “Post-emergence herbicidal damage score, ABUTH (Abutilon theophrasti)” value worked out at 0; the “Post-emergence herbicidal damage score, ALOMY (Alopecurus myosuroides)” value is recorded as 0; the “Post-emergence herbicidal damage score, AMARE (Amaranthus retroflexus)” value stood at 1; the “Post-emergence herbicidal damage score, ECHCG (Echinochloa crus-galli)” value was 0. Besides, the “Post-emergence herbicidal damage score, SETFA (Setaria faberi)” value worked out at 0 and the “Post-emergence herbicidal damage score, ZEAMX (Zea mays)” value was 0.

In the case of `CC1=C(Cl)C(O)N(c2cc(C)n(C(F)(F)F)n2)C1=O` (stereo not drawn) [Compound C9], the “Post-emergence herbicidal damage score, ABUTH (Abutilon theophrasti)” value is 1; the “Post-emergence herbicidal damage score, ALOMY (Alopecurus myosuroides)” value is 0; the “Post-emergence herbicidal damage score, AMARE (Amaranthus retroflexus)” value amounted to 1; the “Post-emergence herbicidal damage score, ECHCG (Echinochloa crus-galli)” value amounted to 1. Also, the “Post-emergence herbicidal damage score, SETFA (Setaria faberi)” value was determined as 0 and the “Post-emergence herbicidal damage score, ZEAMX (Zea mays)” value is listed as 1.

On to `CC1=C(Cl)C(O)N(c2nn(C)c(C(C)(C)C)c2C#N)C1=O` (stereo not drawn) [Compound D1], for which the “Post-emergence herbicidal damage score, ABUTH (Abutilon theophrasti)” value is reported as 3; the “Post-emergence herbicidal damage score, ALOMY (Alopecurus myosuroides)” value came out at 2; the “Post-emergence herbicidal damage score, AMARE (Amaranthus retroflexus)” value worked out at 4; the “Post-emergence herbicidal damage score, ECHCG (Echinochloa crus-galli)” value was 3. Moreover, the “Post-emergence herbicidal damage score, SETFA (Setaria faberi)” value was 1 and the “Post-emergence herbicidal damage score, ZEAMX (Zea mays)” value stood at 0.

For `CC1=C(Cl)C(O)N(c2nn(C)c(C(C)(C)C)c2Cl)C1=O` (stereo not drawn) [Compound D2], the “Post-emergence herbicidal damage score, ABUTH (Abutilon theophrasti)” value was found to be 3; the “Post-emergence herbicidal damage score, ALOMY (Alopecurus myosuroides)” value came out at 1; the “Post-emergence herbicidal damage score, AMARE (Amaranthus retroflexus)” value worked out at 0; the “Post-emergence herbicidal damage score, ECHCG (Echinochloa crus-galli)” value is given as 2. Besides, the “Post-emergence herbicidal damage score, SETFA (Setaria faberi)” value is listed as 2 and the “Post-emergence herbicidal damage score, ZEAMX (Zea mays)” value is given as 0.

`CC1=C(Cl)C(O)N(c2nn(C)c(C(C)(C)CCl)c2Cl)C1=O` (stereo not drawn) [Compound D3]: the “Post-emergence herbicidal damage score, ABUTH (Abutilon theophrasti)” value came to 1; the “Post-emergence herbicidal damage score, ALOMY (Alopecurus myosuroides)” value was 0; the “Post-emergence herbicidal damage score, AMARE (Amaranthus retroflexus)” value is on record as 0; the “Post-emergence herbicidal damage score, ECHCG (Echinochloa crus-galli)” value stood at 2. In addition, the “Post-emergence herbicidal damage score, SETFA (Setaria faberi)” value was 1 and the “Post-emergence herbicidal damage score, ZEAMX (Zea mays)” value is recorded as 1.
